Test results: patent US20230382894A1, “CCR4 ANTAGONISTS” (CHEMOCENTRYX, INC., priority 2022, published 2023)

target: T1, CCR4 (Homo sapiens, UniProt P51679); assay: CEM cell chemotaxis (migration) assay to CCL22 (MDC) in 100% Fetal Bovine Serum (FBS); type: cell-based; conditions: CEM cells in 100% FBS with 1% HEPEs; recombinant human CCL22 0.1 nM; 37° C. 60 minutes
T1 construct: CEM Cells Endogenous Express CCR4; endogenous in cells; host or cells: CEM cells
T1 sequence (P51679 1-360): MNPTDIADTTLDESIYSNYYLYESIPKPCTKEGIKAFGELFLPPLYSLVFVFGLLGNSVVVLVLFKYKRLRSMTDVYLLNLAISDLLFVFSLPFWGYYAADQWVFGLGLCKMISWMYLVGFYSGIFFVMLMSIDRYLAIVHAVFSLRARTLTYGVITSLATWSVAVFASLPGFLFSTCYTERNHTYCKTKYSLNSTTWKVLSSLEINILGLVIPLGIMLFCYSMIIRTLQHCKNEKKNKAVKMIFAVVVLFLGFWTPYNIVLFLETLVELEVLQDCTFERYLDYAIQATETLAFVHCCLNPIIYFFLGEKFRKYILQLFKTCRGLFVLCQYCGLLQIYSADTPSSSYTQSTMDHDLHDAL
From the text: CEM Cells Endogenous Express CCR4
A chemotaxis assay can be used to determine the efficacy of potential receptor antagonists at blocking the migration mediated through chemokine receptors, such as CCR4. This assay is routinely performed using the ChemoTX® microchamber system with a 5 μm pore-sized polycarbonate membrane.
FBS: CEM Cells are collected by centrifugation at 400×g at room temperature, then suspended at 5 million/ml in 100% Fetal Bovine Serum (FBS) with 1% HEPEs. The compound being tested is serially diluted from a maximum final concentration of 10 μM (or an equivalent volume of its solvent (DMSO)) and is then added to the cell/buffer mixture. Separately, recombinant human CCL22 (MDC) at its EC50 concentration (0.1 nM) is placed in the lower wells of the ChemoTX® plate. The 5-μm (pore size) polycarbonate membrane was placed onto the plate, and 20 μL of the cell/compound mixture is transferred onto each well of the membrane. The plates are incubated at 37° C. for 60 minutes, after which the polycarbonate membranes are removed and 5 μl of the DNA-intercalating dye CyQUANT (Invitrogen, Carlsbad, CA) is added to the lower wells. The amount of fluorescence, corresponding to the number of migrated cells, is measured using a Spectrafluor Plus plate reader (TECAN, San Jose, CA).

IC50 [nM]	Serum IC50 (FBS)	SMILES
< 100		C[C@@H](Nc1nc(N2CC[C@H](NC(=O)[C@H]3CCCN3)[C@@H](O)C2)ncc1OC(F)F)c1ccc(Cl)cc1Cl [Example 1.155]
< 100		COc1cnc(N2CCN(C(=O)[C@H]3CCCN3C)CC2)nc1N[C@H](C)c1ccc(Cl)cc1Cl [Example 1.156]
< 100		C[C@@H](Nc1nc(N2CCN(C(=O)[C@H]3CCCN3)CC2)ncc1F)c1ccc(Cl)cc1Cl [Example 1.157]
< 100		COc1cnc(N2CCC(C3CCCN(CCO)C3)CC2)nc1N[C@H](C)c1ccc(Cl)cc1Cl (stereo partly drawn) [Example 1.158]
< 100		C[C@@H](Nc1nc(C2CCN(C(=O)[C@H]3CCCN3)CC2)ncc1Cl)c1ccc(Cl)cc1Cl [Example 1.159]
> 1000		C[C@@H](Nc1nc(C2CCN(C(=O)[C@H]3CCC(=O)N3)CC2)ncc1Cl)c1ccc(Cl)cc1Cl [Example 1.160]
< 100		CC(C)Oc1cnc(N2CCN(C(=O)C[C@@H]3CCCN3)CC2)nc1N[C@H](C)c1ccc(Cl)cc1Cl [Example 1.161]
< 100		C[C@@H](Nc1nc(C2=CCN(C(=O)[C@H]3CCC(=O)N3)CC2)ncc1Cl)c1ccc(Cl)cc1Cl [Example 1.162]
	+ ++	COc1cnc(N2CCN(C(=O)[C@H]3CCNC3)CC2)nc1N[C@H](C)c1ccc(Cl)cc1Cl [Example 1.163]
< 100		COc1cnc(N2CCN(C(=O)C[C@H]3CCCN3)CC2)nc1N[C@H](C)c1ccc(Cl)cc1Cl [Example 1.164]
< 100		COc1cnc(N2CCN(C(=O)C3CCN(C)CC3)CC2)nc1N[C@H](C)c1ccc(Cl)cc1Cl [Example 1.165]
< 100		C[C@@H](Nc1nc(N2CCN(C(=O)C[C@H]3CCCN3)CC2)ncc1OC(F)F)c1ccc(Cl)cc1Cl [Example 1.166]
< 100		C[C@@H](Nc1nc(N2CCN(C(=O)[C@H]3CCCN3)CC2)ncc1O)c1ccc(Cl)cc1Cl [Example 1.167]
< 100		COc1cnc(N2CCN(C(=O)C[C@@H]3CCCN3C)CC2)nc1N[C@H](C)c1ccc(Cl)cc1Cl [Example 1.168]
< 100		C[C@@H](Nc1nc(N2CCN(C(=O)C[C@@H]3CCCN3C)CC2)ncc1Cl)c1ccc(Cl)cc1Cl [Example 1.169]
< 100		COc1cnc(N2CCC(N(C)C(=O)[C@H]3CCCN3)CC2)nc1N[C@H](C)c1ccc(Cl)cc1Cl [Example 1.170]
< 100		C[C@@H](Nc1nc(N2CCN(C(=O)[C@H]3CCC(=O)N3)CC2)ncc1OC(F)F)c1ccc(Cl)cc1Cl [Example 1.171]
< 100		C[C@@H](Nc1nc(N2CCN(C(=O)[C@H]3CCCN3)CC2)ncc1OC(F)F)c1ccc(Cl)cc1Cl [Example 1.172]
< 100		COc1cnc(N2CCN(C(=O)[C@H]3CC[C@@H](C)N3)CC2)nc1N[C@H](C)c1ccc(Cl)cc1Cl [Example 1.173]
< 100		CC(C)Oc1cnc(N2CCN(C(=O)[C@H]3CCCN3)CC2)nc1N[C@H](C)c1ccc(Cl)cc1Cl [Example 1.174]

IC50 [nM]	Serum IC50 (FBS)	SMILES
< 100		COc1nc(N2CCN(C(=O)[C@H]3CCCN3)CC2)nc(N[C@H](C)c2ccc(Cl)cc2Cl)c1Cl [Example 1.175]
< 100		COc1cnc(N2CCC(NC(=O)[C@H]3CCCN3)CC2)nc1N[C@H](C)c1ccc(Cl)cc1Cl [Example 1.176]
< 100		COc1cnc(N2CCN(C(=O)C[C@@H]3CCCN3)CC2)nc1N[C@H](C)c1ccc(Cl)cc1Cl [Example 1.177]
< 100		C[C@@H](Nc1nc(N2CCC(O[C@H]3CCN(C)C3)CC2)ncc1Cl)c1ccc(Cl)cc1Cl [Example 1.178]
< 100		COc1cnc(N2CC[C@H](NC(=O)[C@H]3CCCN3)[C@@H](O)C2)nc1N[C@H](C)c1ccc(Cl)cc1Cl [Example 1.179]
< 100		C[C@@H](Nc1nc(N2CCN(C(=O)C[C@@H]3CCCN3)CC2)ncc1Cl)c1ccc(Cl)cc1Cl [Example 1.180]
< 100		CCOc1cnc(N2CCN(C(=O)[C@H]3CCCN3)CC2)nc1N[C@H](C)c1ccc(Cl)cc1Cl [Example 1.181]
< 100		CCOc1cnc(N2CCN(C(=O)[C@H]3CCC(=O)N3)CC2)nc1N[C@H](C)c1ccc(Cl)cc1Cl [Example 1.182]
< 100		CCOc1cnc(N2CCN(C(=O)CCN(C)C)CC2)nc1N[C@H](C)c1ccc(Cl)cc1Cl [Example 1.183]
< 100		CCOc1cnc(N2CCN(C(=O)[C@H]3CCN(C)C3)CC2)nc1N[C@H](C)c1ccc(Cl)cc1Cl [Example 1.184]
< 100		C[C@@H](Nc1nc(N2CCN(C(=O)CCN3CCCC3)CC2)ncc1Cl)c1ccc(Cl)cc1Cl [Example 1.185]
< 100		C[C@@H](Nc1nc(N2CCC(O[C@@H]3CNC[C@H]3F)CC2)ncc1Cl)c1ccc(Cl)cc1Cl [Example 1.186]
< 100		COc1cnc(N2CCN(C(=O)CCN(C)C)CC2)nc1N[C@H](C)c1ccc(Cl)cc1Cl [Example 1.187]
< 100		COc1cnc(N2CCN(C(=O)[C@H]3CCC(=O)N3)CC2)nc1N[C@H](C)c1ccc(Cl)cc1Cl [Example 1.188]
< 100		COc1cnc(N2CCN(C(=O)[C@H]3CCN(C)C3)CC2)nc1N[C@H](C)c1ccc(Cl)cc1Cl [Example 1.189]
< 100		C[C@@H](Nc1nc(N2CCC(O[C@@H]3CNC[C@@H]3F)CC2)ncc1Cl)c1ccc(Cl)cc1Cl [Example 1.190]
100 to 1000		C[C@@H](Nc1nc(N2CCN(C(=O)CCN3CCCC3=O)CC2)ncc1Cl)c1ccc(Cl)cc1Cl [Example 1.191]
< 100		C[C@@H](Nc1nc(N2CCN(C(=O)CN3CCCC3)CC2)ncc1Cl)c1ccc(Cl)cc1Cl [Example 1.192]
< 100		C[C@@H](Nc1nc(N2CCC(O[C@H]3CCN(CCO)C3)CC2)ncc1Cl)c1ccc(Cl)cc1Cl [Example 1.193]
100 to 1000		C[C@@H](Nc1nc(N2CC[C@H](N(C)C(=O)[C@H]3CCCN3)[C@@H](O)C2)ncc1Cl)c1ccc(Cl)cc1Cl [Example 1.194]

IC50 [nM]	Serum IC50 (FBS)	SMILES
100 to 1000		C[C@@H](Nc1nc(N2CCN(C(=O)[C@H]3CC4(CC4)C(=O)N3)CC2)ncc1Cl)c1ccc(Cl)cc1Cl [Example 1.195]
100 to 1000		C[C@@H](Nc1nc(N2CCN(C(=O)CCN3CCOCC3)CC2)ncc1Cl)c1ccc(Cl)cc1Cl [Example 1.196]
< 100		COc1cnc(N2CCN(C(=O)[C@H]3CCCN3)CC2)nc1N[C@H](C)c1ccc(Cl)cc1Cl [Example 1.197]
< 100		C[C@@H](Nc1nc(N2CCN(C(=O)[C@H]3CCC(=O)N3)CC2)ncc1Cl)c1c(F)cc(Cl)cc1Cl [Example 1.198]
100 to 1000		C[C@@H](Nc1nc(N2CCC(OC3CNC3)CC2)ncc1Cl)c1ccc(Cl)cc1Cl [Example 1.199]
< 100		C[C@@H](Nc1nc(N2CCN(C(=O)[C@H]3CCCNC3)CC2)ncc1Cl)c1ccc(Cl)cc1Cl [Example 1.201]
< 100		C[C@@H](Nc1nc(N2CCN(C(=O)[C@H]3CCC(=O)N3)CC2)ncc1Cl)c1cc(F)c(Cl)cc1Cl [Example 1.202]
100 to 1000		C[C@@H](Nc1nc(N2CC[C@H](NC(=O)CN(C)C)[C@@H](O)C2)ncc1Cl)c1ccc(Cl)cc1Cl [Example 1.203]
< 100		C[C@H]1CC[C@H](C(=O)N2CCN(c3ncc(Cl)c(N[C@H](C)c4ccc(Cl)cc4Cl)n3)CC2)N1 [Example 1.204]
100 to 1000		C[C@@H](Nc1nc(N2CCN(C(=O)C3(N)CCOCC3)CC2)ncc1Cl)c1ccc(Cl)cc1Cl [Example 1.205]
< 100		C[C@@H](Nc1nc(N2CC[C@H](NC(=O)[C@H]3CCN(C)C3)[C@@H](O)C2)ncc1Cl)c1ccc(Cl)cc1Cl [Example 1.206]
100 to 1000		C[C@@H](Nc1nc(N2CCN(C(=O)[C@H]3CCCN3)CC2)ncc1C#N)c1ccc(Cl)cc1Cl [Example 1.207]
< 100		C[C@@H](Nc1nc(N2CCN(C(=O)[C@]3(C)CCCN3)CC2)ncc1Cl)c1ccc(Cl)cc1Cl [Example 1.208]
100 to 1000		C[C@@H](Nc1nc(N2CCN(C(=O)C3CNC(=O)CN3)CC2)ncc1Cl)c1ccc(Cl)cc1Cl (stereo partly drawn) [Example 1.209]
< 100		C[C@@H](Nc1nc(N2CCN(C(=O)[C@@]3(C)CCCN3)CC2)ncc1Cl)c1ccc(Cl)cc1Cl [Example 1.210]
< 100		C[C@@H](Nc1nc(N2CCC(O[C@@H]3CCNC3)CC2)ncc1Cl)c1ccc(Cl)cc1Cl [Example 1.211]
> 1000		C[C@@H](Nc1nc(N2CCN(C(=O)C3(N)COC3)CC2)ncc1Cl)c1ccc(Cl)cc1Cl [Example 1.212]
100 to 1000		C[C@@H](Nc1nc(N2CCN(C(=O)[C@H](N)CO)CC2)ncc1Cl)c1ccc(Cl)cc1Cl [Example 1.213]
< 100		CC(C)N1CCCC(C2CCN(c3ncc(Cl)c(N[C@H](C)c4ccc(Cl)cc4Cl)n3)CC2)C1 (stereo partly drawn) [Example 1.214]
100 to 1000		COC[C@@H](N)C(=O)N1CCN(c2ncc(Cl)c(N[C@H](C)c3ccc(Cl)cc3Cl)n2)CC1 [Example 1.215]
